Tested on: Aspergillus brasiliensis (ATCC 16404)
Test: Evaluation test for microbicidal effect, suspension test EN 13624:2013 (clean conditions)
Format: cell-based
Conditions: equal molar amount instead of glycine in the formula of Example 1-1

Structure (SMILES)	enhancement of the microbicidal activity of the acidic oxidant of peracetic acid and hydrogen peroxide (in words)
CC(=O)O [acetic acid]	could not enhance the microbicidal activity
O=P([O-])([O-])O.[K+].[K+] [dipotassium hydrogen phosphate]	could not enhance the microbicidal activity
O=P([O-])([O-])[O-].[Na+].[Na+].[Na+] [trisodium phosphate]	could not enhance the microbicidal activity

Reference: patent US12514943B2 (priority 2020, dated 2026)
